From patent US20230241071A1, “COMBINATION TREATMENT OF LIVER DISORDERS” (Terns Pharmaceuticals, Inc., priority 2021, published 2023)

Experiments:
[1] = system: mouse model of NASH; experiment: Mouse NASH model (high fat diet + CCl4), Compound 3 and Compound 2 alone and combined; format: in vivo; details: liver RNAseq vs vehicle NASH control, 28 d; Compound 3 3 mg/kg, Compound 2 1 mg/kg; adj. p<0.05, fold-change >1.5
Protocol: C57BL/6J mice were fed a high fat diet for 10 weeks to induce obesity (>38 g BW). Obese mice were injected intraperitoneally (i.p.) twice a week for four weeks with […] 25% CCl4 (formulated in olive oil) to induce fibrosis, and one group of normal BW mice were injected i.p. twice a week for four weeks with olive oil to serve as a healthy control. During the same dosing period, obese mice were fed orally once a day for 28 days with vehicle, Compound 3 or Compound 2 as single agents or in combination. On CCl4 dosing days, CCl4 was administered at 4 hours post compound or vehicle dosing. On day 27, all animals were fasted for about 16 hours before terminal euthanasia. On day 28, all animals were sacrificed and liver samples were collected for whole transcriptome analysis by RNA sequencing (RNAseq). RNAseq library (n=5 per group) preparation and sequencing was performed using Illumina standard protocols. Alignment of sequencing reads was performed using STAR aligner software and read counts were estimated using RSEM. Differentially expressed genes (compared to vehicle-treated NASH control mice) were determined using EdgeR software. Gene ontology analysis was performed using Advaita software with fold-change and adjusted p-value cutoffs of >1.5 and <0.05, respectively. Gene ontologies were derived from the Gene Ontology Consortium database (2019 Apr. 26) (Ashburner et al., Gene ontology: Tool for the unification of biology. Nature Genetics 25(1): 25-9 (2000); Gene Ontology Consortium, Creating the Gene Ontology Resource: Design and Implementation. Genome Research 11: 1425-1433 (2001)).
Gene ontology (GO) enrichment analysis was used to understand the potential biological consequences of the results in Table 22. To perform GO term enrichment analysis, the number (i.e., enrichment) of DEGs annotated for a particular term (i.e. biology process) was compared to the number of DEGs expected solely by chance. An over-representation approach was used to compute statistical significance (p-value) of observing at least the given number of DEGs; p-values were corrected for multiple comparisons.
On day 28 of treatment as described in Example 14, animals were euthanized for sample collections. Analysis of cholesterol, triglycerides, and ALT was done using a Hitachi 7180 clinical analyzer. Liver samples were processed for lipid quantification (colorimetric assays, SpectraMax 340PC384), histology, and RNA analysis. RNAseq library preparation (n=5 per group) and sequencing was performed using Illumina standard protocols. Alignment of sequencing reads was performed using STAR aligner and read counts were estimated using RSEM. Differentially expressed genes (DEGs) relative to NASH control were determined using EdgeR. Gene ontology analysis was performed using Advaita software.

[2] = target: T1, BCRP (Homo sapiens, UniProt Q9UNQ0)
T1 sequence (Q9UNQ0 1-655): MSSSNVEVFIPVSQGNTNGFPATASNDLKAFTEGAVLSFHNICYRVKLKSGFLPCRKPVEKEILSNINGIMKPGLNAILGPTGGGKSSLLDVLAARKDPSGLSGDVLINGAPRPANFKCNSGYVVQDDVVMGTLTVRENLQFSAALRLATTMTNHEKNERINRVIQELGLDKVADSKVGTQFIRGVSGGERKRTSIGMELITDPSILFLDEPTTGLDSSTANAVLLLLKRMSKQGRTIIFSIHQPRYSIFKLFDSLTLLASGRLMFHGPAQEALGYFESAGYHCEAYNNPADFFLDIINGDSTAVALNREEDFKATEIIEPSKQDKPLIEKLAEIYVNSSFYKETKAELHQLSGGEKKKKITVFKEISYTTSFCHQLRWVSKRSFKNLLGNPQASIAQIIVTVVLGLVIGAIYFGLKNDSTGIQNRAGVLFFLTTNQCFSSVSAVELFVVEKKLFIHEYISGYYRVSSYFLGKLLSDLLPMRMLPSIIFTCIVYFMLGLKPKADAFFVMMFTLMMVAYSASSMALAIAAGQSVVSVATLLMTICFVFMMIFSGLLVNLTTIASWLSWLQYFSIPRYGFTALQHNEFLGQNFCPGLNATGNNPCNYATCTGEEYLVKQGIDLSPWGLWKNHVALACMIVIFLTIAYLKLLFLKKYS

Structure (SMILES)	Down DEGs [1]	Total DEGs [1]	Up DEGs [1]	IC50 [2] [µM]
Cn1cc(C(=O)O)c2ccc(N3CCC(OCc4c(-c5c(Cl)cccc5Cl)noc4C4CC4)CC3)cc21 [Compound 3]	271	617	346	4.39
N#Cc1nn(-c2cc(Cl)c(Oc3n[nH]c(=O)c4ccccc34)c(Cl)c2)c(=O)[nH]c1=O [Compound 2, 2-(3,5-dichloro-4-((4-oxo-3,4-dihydrophthalazin-1-yl)oxy)phenyl)-3,5-dioxo-2,3,4,5-tetrahydro-1,2,4-triazine-6-carbonitrile]	635	1113	478	9.37
